Test results taken from ChEMBL document CHEMBL5126667, “Tigliane-Type Diterpene Esters from the Fruits of Shirakiopsis indica and Their Anti-HIV Activity” (J Nat Prod, 2022).

What was measured:
[1] = tested on: Human immunodeficiency virus; test: Antiviral activity against HIV NL4-3 infected in MT-4 cells assessed as viral replication measured after 4 days by p24-ELISA; assay type: functional, organism-based; details: Human immunodeficiency virus 1, NL4-3, MT4, 96 h
[2] = Therapeutic index, ratio of cytotoxicity against human MT4 cells to antiviral activity against HIV NL4-3; assay type: toxicity, cell-based; details: read-out: TI

What does the source list for `CNc1ccccc1C(=O)O[C@@H]1[C@@H](C)[C@@]2(O)[C@@H](C=C(CO)C[C@]3(O)C(=O)C(C)=C[C@@H]23)[C@@H]2C(C)(C)[C@]12OC(C)=O`?
EC50 [1]: 44 nM; selectivity ratio [2]: 5290

With `CCC/C=C/C=C/C=C\C(=O)O[C@@H]1[C@@H](C)[C@]2(O)[C@@H]3C=C(C)C(=O)[C@H]3CC(CO)=C[C@H]2[C@@H]2C(C)(C)[C@]12OC(C)=O` as the molecule, how does the EC50 [1] read?
The EC50 was 130 nM.

And the selectivity ratio [2]?
Its selectivity ratio is 161.

Which results are given for `CNc1ccccc1C(=O)O[C@@H]1[C@@H](C)[C@]2(O)[C@@H]3C=C(C)C(=O)[C@H]3CC(CO)=C[C@H]2[C@@H]2C(C)(C)[C@]12OC(C)=O` [SAPINTOXIN A]?
EC50 [1]: 7.4 nM; selectivity ratio [2]: 1100

Which EC50 [1] does the source give for `Cc1cn([C@H]2C[C@H](N=[N+]=[N-])[C@@H](CO)O2)c(=O)[nH]c1=O` [ZIDOVUDINE] here?
Its EC50 is 20 nM.

What about the selectivity ratio [2] of the same molecule?
The selectivity ratio was greater than 22.
